Measured values: article PMC8130611 (ACS infectious diseases, 2021)
Entries after “also recorded” stand apart in the source; their conditions may differ.

What was measured:
TNF-R1–TNF-α interaction = TNF-R1–TNF-α interaction (Homo sapiens, UniProt P01375+P19438); assay: cell-free ELISA-type counter-assay, inhibition of TNF-R1–TNF-α interaction; type: binding
THP-1 human cells = settings: concentrations of up to 200 μM; ref [61], [62]; cited from earlier work
SARS-CoV = settings: cited from earlier work
[1] = target: SARS-CoV-2-S-RBD–hACE2 PPI (Severe acute respiratory syndrome coronavirus 2, UniProt P0DTC2); type: binding, human; settings: for IC50: read-out: IC50, inhibition of SARS-CoV-2-RBD binding to hACE2
[2] = test system: BacMam-based pseudovirus bearing the SARS-CoV-2 S protein; type: cell-based

Sequence of TNF-R1–TNF-α interaction (P19438 30-211): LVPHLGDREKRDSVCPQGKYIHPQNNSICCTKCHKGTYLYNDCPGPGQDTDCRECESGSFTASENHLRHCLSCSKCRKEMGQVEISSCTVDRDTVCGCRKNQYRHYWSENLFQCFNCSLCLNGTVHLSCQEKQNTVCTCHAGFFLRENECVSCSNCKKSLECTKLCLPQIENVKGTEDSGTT
Sequence of TNF-R1–TNF-α interaction (P01375 85-233): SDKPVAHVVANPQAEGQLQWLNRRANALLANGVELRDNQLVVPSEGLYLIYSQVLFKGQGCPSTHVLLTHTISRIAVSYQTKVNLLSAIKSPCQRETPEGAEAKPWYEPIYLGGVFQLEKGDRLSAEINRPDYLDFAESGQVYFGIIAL

Work on Nc1c(/N=N/c2ccc(-c3ccc(/N=N/c4cc(S(=O)(=O)O)c5ccccc5c4N)cc3)cc2)cc(S(=O)(=O)O)c2ccccc12 [Congo red] yielded an IC50 (TNF-R1–TNF-α interaction) of 6 µM.

In the case of O=C(Nc1ccc(-c2ccc(C(=O)Nc3cccc4cccc(S(=O)(=O)O)c34)cc2)cc1)c1ccc([N+](=O)[O-])cc1 [DRI-C21041], the “effect on viability of THP-1 human cells” value (THP-1 human cells) is listed as “did not have significant effects”.

In the case of CN1CCN(c2ccc(CNC(=O)c3ccno3)cc2)CC1 [SSAA09E2], the “activities of previously identified candidates” value (SARS-CoV) is listed as 3.1 µM.

For OC(COc1cccc(OCC(O)CN2CCCCC2)c1)CN1CCCCC1 (stereo not shown) [VE607], the “activities of previously identified candidates” value (SARS-CoV) is listed as 1.6 µM.

In the case of CCOc1ccc(N=Nc2ccc(-c3ccc(N=Nc4c(O)ccc5cc(S(=O)(=O)O)cc(S(=O)(=O)O)c45)c(C)c3)cc2C)cc1 [calcomine scarlet 3B], the IC50 [1] is reported as 4.25 µM.

For Nc1ccc(N=Nc2ccc(-c3ccc(N=Nc4c(S(=O)(=O)O)cc5cc(S(=O)(=O)O)c(N=Nc6ccccc6)c(O)c5c4N)cc3)cc2)c(N)c1 [chlorazol black], the IC50 [1] was 2.57 µM.

For CCN(CC)CCCC(C)Nc1ccnc2cc(Cl)ccc12 (stereo not shown) [chloroquine], the “cytotoxicity (MTS)” value (HEK293T cells) was “noticeable cytotoxicity”.

In the case of CCN(CCO)CCCC(C)Nc1ccnc2cc(Cl)ccc12 (stereo not shown) [hydroxychloroquine], the “inhibition of pseudovirus entry (BacMam), in words” value [2] is reported as “did not show any significant inhibition; also recorded: no effect”.

With CN(C)c1ccc2nc3ccc(=[N+](C)C)cc-3sc2c1 [methylene blue] the “activity in screening for inhibitors of SARS-CoV-2 RBD binding” value (“activity in screening for inhibitors” for short) [1] was “promising inhibitory activity”.

With Nc1c(N=Nc2ccc([N+](=O)[O-])cc2)c(S(=O)(=O)[O-])cc2cc(S(=O)(=O)[O-])c(N=Nc3ccccc3)c(O)c12.[Na+].[Na+] [naphthol blue black] the “inhibitory activity on SARS-CoV-2-RBD–hACE2 binding (in words)” value (from here on “inhibitory activity”) [1] was “no inhibitory activity”.

In the case of O=C([O-])c1c(Cl)c(Cl)c(Cl)c(Cl)c1-c1c2cc(Br)c(=O)c(Br)c-2oc2c(Br)c([O-])c(Br)cc12.[Na+].[Na+] [phloxine B], the “activity in screening for inhibitors” value [1] is reported as “strongest activity”.

With O=C([O-])c1c(Cl)c(Cl)c(Cl)c(Cl)c1-c1c2cc(I)c(=O)c(I)c-2oc2c(I)c([O-])c(I)cc12.[Na+].[Na+] [rose Bengal] the “activity in screening for inhibitors” value [1] was “strongest activity”.

In the case of O=S(=O)([O-])c1ccc(N=Nc2c(O)ccc3cc(S(=O)(=O)[O-])ccc23)cc1.[Na+].[Na+] [sunset yellow FCF], the “inhibitory activity” value [1] is reported as “no inhibitory activity”.

In the case of Cc1ccc(C(=O)Nc2ccc(S(=O)(=O)O)c3cc(S(=O)(=O)O)cc(S(=O)(=O)O)c23)cc1NC(=O)c1cccc(NC(=O)Nc2cccc(C(=O)Nc3cc(C(=O)Nc4ccc(S(=O)(=O)O)c5cc(S(=O)(=O)O)cc(S(=O)(=O)O)c45)ccc3C)c2)c1 [suramin], the “inhibitory activity” value [1] is reported as “neither chloroquine nor suramin showed inhibitory activity; also recorded: no activity”.

For erythrosine B, the “activity in screening for inhibitors” value [1] was “strongest activity” and the IC50 [1] was 0.4 µM.
